{"source": "patent EP4789670A1", "about": "“PREPARATION CONTAINING URACIL DERIVATIVE” (Shionogi & Co., Ltd, priority 2023, dated 2025)", "key": {"SARS-CoV-2": {"system": "SARS-CoV-2", "test": "Cytopathic effect (CPE) suppression effect confirmation test using HEK293T/ACE2-TMPRSS2 cells", "format": "cell-based", "conditions": "Severe acute respiratory syndrome coronavirus 2, HEK-293T, 72 h, SARS-CoV-2 200-600 TCID50/well, cultured 3 days, CellTiter-Glo 2.0, read-out: 50% SARS-CoV-2 infected cell death inhibitory concentration (EC50)", "description": "Test Example 1: Cytopathic Effect (CPE) Suppression Effect Confirmation Test Using HEK293T Cells Expressing Human TMPRSS2, ACE2 (HEK293T/ACE2-TMPRSS2 Cells)\nThe sample to be tested is diluted in advance to an appropriate concentration with DMSO, and a 2- to 5-fold series of serial dilutions is prepared and then dispensed into a 384-well plate.\nHEK293T/ACE2-TMPRSS2 cells (GCP-SL222, 5×10^3 cells/well) and SARS-CoV-2 (200-600 TCID50/well) are mixed in a medium (MEM, 2% FBS, penicillin-streptomycin), the mixture is dispensed into the wells in which the sample to be tested has been introduced, and then the cells are cultured for 3 days in a CO2 incubator.\nThe plate that has been cultured for 3 days is returned to room temperature, subsequently CellTiter-Glo (registered trademark) 2.0 is dispensed into each well, and the plate is mixed using a plate mixer. After standing for a predetermined period of time, the luminescence signal (Lum) is measured using a plate reader."}, "physchem": {"test": "physchem", "format": "physicochemical", "description": "The solid dispersion obtained in Example 4D and the anhydrous crystal alone of the compound represented by Formula (I) (Example 4F-1) were added to various test media to prepare suspensions of 30 to 50 mL. The prepared suspensions were placed in centrifuge tubes and shaken at a shaking speed of 100 rpm or higher. After 60 minutes from the start of shaking, 5 mL of each suspension was collected and immediately filtered through a filter (Chromadisc, 0.45 µm, 25A) to obtain test samples."}}}
{"smiles": "N#CCn1c(N2CC3(C2)CC(F)(F)C3)c(-c2ccc(F)c(Cl)c2)c(=O)n(-c2cncc(Cl)c2)c1=O", "note": "[Compound (I)]", "values": [{"measurement": "EC50", "setting": "SARS-CoV-2", "value": 1.66, "unit": "nM"}]}
{"smiles": "N#CCn1c(N2CC3(C2)CC(F)(F)C3)c(-c2ccc(F)c(Cl)c2)c(=O)n(-c2cncc(Cl)c2)c1=O", "note": "[Example 4F-1]", "values": [{"measurement": "solubility at 1 h", "setting": "physchem; diluted mcilvaine buffer, pH 4", "value": 0.64, "unit": "µg/mL"}, {"measurement": "solubility at 1 h", "setting": "physchem; jp first dissolution test medium, pH 1.2", "value": 1.08, "unit": "µg/mL"}, {"measurement": "solubility at 1 h", "setting": "physchem; jp second dissolution test medium, pH 6.8", "value": 0.61, "unit": "µg/mL"}, {"measurement": "solubility at 1 h", "setting": "physchem; purified water", "value": 0.71, "unit": "µg/mL"}]}
